Reference: US6878751B1, “Administration of resveratrol to treat inflammatory respiratory disorders” (Imperial College of Science Technology and Medicine, priority 2000, dated 2005)

Test system: iNOS mRNA
Test: iNOS mRNA expression by RT-PCR in cytomix-treated primary epithelial cells
Type: cell-based, human
Settings: primary epithelial cells treated 4 hours with cytomix
Experimental: Human primary epithelial cells are cultured from normal donor tissue. Explant cultures of tissue obtained from normal human lung transplant donors provided human primary epithelial (HPE) cells. The HPE cells were cultured in Ham's F12 nutrient medium containing 5% (v/v) fetal calf serum (FCS), 1 μM hydrocortisone, 5 ng/ml EGF (epithelial growth factor), 10 μg/ml insulin, 10 nM retinoic acid, 0.5 μg/ml transferrin, 2 μg/ml triiodothyronine, 1.5 μg/ml NaHCO3, 100 μg/ml penicillin, 100 μg/ml streptomycin and 0.25 μg/m amphotericin B; the cells were incubated at 37° C. in a humidified atmosphere containing 95% (v/v) air, 5% (v/v) CO2. The HPE cells were cultured for the last 24 hours prior to the experimental treatments under the same conditions except that additive free Ham's F12 media was substituted for the supplemented Ham's F12 media described above.
Expression of mRNA for iNOS was evaluated by RT-PCR of RNA extracted from the cells using the Qiagen RNeasy mini kit as directed by the manufacturer (Crawley, Sussex, U.K.). RT-PCR was performed according to routine methods. […]

Oc1ccc(/C=C/c2cc(O)cc(O)c2)cc1 [Resveratrol, 3,5,4′-trihydroxystilbene]
inhibition of iNOS expression as measured by mRNA: inhibited iNOS expression
